In PubChem BioAssay AID330 (DTP/NCI, 2004):
Values joined by “and” are separate entries in the source; they are usually repeats but may differ in a detail not shown here. Equal entries are not always repeated. Toxic doses and inconclusive results are not listed. Rule for the calls: active = survival T/C of 150% or more; inactive = T/C below 125% in these data.

Tested on: P388 leukemia ip, CD2F1 mice, survival T/C
Test: NCI In Vivo Anticancer Drug Screen. Data for tumor model P388 Leukemia (intraperitoneal) in CD2F1 (CDF1) mice
Settings: endpoint: median survival time, higher = longer survival
Procedure, shortened: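 Mice carrying the transplanted tumor received test compound or vehicle. Survival was recorded in each group, and the value is the treated-group measurement divided by that of the vehicle-treated control group.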

[1] = dose: 50.0 mg/kg/injection, schedule: Q01DX005 (ip), vehicle: saline with Tween-80
[2] = dose: 100.0 mg/kg/injection, schedule: Q01DX005 (ip), vehicle: saline with Tween-80
[3] = dose: 200.0 mg/kg/injection, schedule: Q01DX005 (ip), vehicle: saline with Tween-80
[4] = dose: 50.0 mg/kg/injection, schedule: Q01DX009 (ip), vehicle: Klucel (hydroxypropylcellulose) (HPC)
[5] = dose: 50.0 mg/kg/injection, schedule: Q01DX005 (ip), vehicle: Klucel (hydroxypropylcellulose) (HPC)
[6] = dose: 100.0 mg/kg/injection, schedule: Q01DX005 (ip), vehicle: Klucel (hydroxypropylcellulose) (HPC)
[7] = dose: 200.0 mg/kg/injection, schedule: Q01DX005 (ip), vehicle: Klucel (hydroxypropylcellulose) (HPC)

Measured: T/C

S=c1cn[nH]c2ccc(S)cc12
inactive: [1] 88 % of control | [2] 99 % of control | [3] 97 % of control

CC(=O)NC(Cc1cc(I)c(OC(C)=O)c(I)c1)C(C)=O (configuration not stated)
inactive: [4] 101 % of control | dose: 100.0 mg/kg/injection, schedule: Q01DX009 (ip), vehicle: Klucel (hydroxypropylcellulose) (HPC) 100 % of control | dose: 200.0 mg/kg/injection, schedule: Q01DX009 (ip), vehicle: Klucel (hydroxypropylcellulose) (HPC) 98 % of control

Nc1ccc2[nH]c(=O)cc(C(=O)O)c2c1
inactive: [1] 92 % of control | [2] 93 % of control | [3] 92 % of control

Cc1ccc(S(=O)(=O)/N=C2\CCN(S(=O)(=O)c3ccccc3)N2S(=O)(=O)c2ccc(C)cc2)cc1
inactive: [5] 99 % of control | [6] 90 % of control | [7] 94 % of control

CCCC(O)(CC)/C(C)=N/O (configuration not stated)
inactive: dose: 50.0 mg/kg/injection, schedule: Q01DX009 (ip), vehicle: saline with Tween-80 96 % of control | dose: 100.0 mg/kg/injection, schedule: Q01DX009 (ip), vehicle: saline with Tween-80 91 % of control | dose: 200.0 mg/kg/injection, schedule: Q01DX009 (ip), vehicle: saline with Tween-80 91 % of control

CN(C)C1CC2C=CC1C1C=CC21 (configuration not stated)
inactive: dose: 3.13 mg/kg/injection, schedule: Q01DX009 (ip), vehicle: water 100 % of control | dose: 6.25 mg/kg/injection, schedule: Q01DX009 (ip), vehicle: water 99 % of control | dose: 12.5 mg/kg/injection, schedule: Q01DX009 (ip), vehicle: water 100 % of control | dose: 25.0 mg/kg/injection, schedule: Q01DX009 (ip), vehicle: water 99 % of control | dose: 50.0 mg/kg/injection, schedule: Q01DX009 (ip), vehicle: water 98 % of control

CC(=O)C1=C(O)C2(C)c3c(O)c(C)c(O)c(C(C)=O)c3OC2CC1=O (configuration not stated)
inactive: dose: 6.25 mg/kg/injection, schedule: Q01DX009 (ip), vehicle: gum acacia 100 % of control and 106 % of control | dose: 12.5 mg/kg/injection, schedule: Q01DX009 (ip), vehicle: gum acacia 103 % of control and 108 % of control | dose: 25.0 mg/kg/injection, schedule: Q01DX009 (ip), vehicle: gum acacia 108 % of control and 110 % of control | dose: 50.0 mg/kg/injection, schedule: Q01DX009 (ip), vehicle: gum acacia 108 % of control and 110 % of control

N#CC(C(N)=O)C(CC(=O)c1ccccc1)c1ccccc1 (configuration not stated)
inactive: [5] 100 % of control | [6] 102 % of control | [7] 101 % of control

c1ccc2c(c1)ccc1c[n+]3ccccc3cc12
inactive: dose: 0.25 mg/kg/injection, schedule: Q01DX009 (ip), vehicle: saline 100 % of control | dose: 0.5 mg/kg/injection, schedule: Q01DX009 (ip), vehicle: saline 104 % of control | dose: 1.0 mg/kg/injection, schedule: Q01DX009 (ip), vehicle: saline 100 % of control | dose: 1.25 mg/kg/injection, schedule: Q04DX003 (ip), vehicle: other 100 % of control | dose: 2.5 mg/kg/injection, schedule: Q04DX003 (ip), vehicle: other 107 % of control

NCCN1CCc2ccccc2C1
inactive: dose: 6.25 mg/kg/injection, schedule: Q04DX003 (ip), vehicle: saline 95 % of control | dose: 12.5 mg/kg/injection, schedule: Q04DX003 (ip), vehicle: saline 100 % of control | dose: 25.0 mg/kg/injection, schedule: Q04DX003 (ip), vehicle: saline 100 % of control

C/C(=N/NC(=O)O[C@@H]1C[C@H](C)CC[C@H]1C(C)C)c1cc[c]([Sn]([CH3])([Cl])[c]2ccccc2)cc1 (some centres not stated)
inactive: dose: 0.93 mg/kg/injection, schedule: Q01DX005 (ip), vehicle: Klucel (hydroxypropylcellulose) (HPC) 108 % of control | dose: 1.87 mg/kg/injection, schedule: Q01DX005 (ip), vehicle: Klucel (hydroxypropylcellulose) (HPC) 100 % of control | dose: 3.75 mg/kg/injection, schedule: Q01DX005 (ip), vehicle: Klucel (hydroxypropylcellulose) (HPC) 100 % of control and 109 % of control | dose: 7.5 mg/kg/injection, schedule: Q01DX005 (ip), vehicle: Klucel (hydroxypropylcellulose) (HPC) 107 % of control

C#CCOC(=O)Nc1nc2ccc(SC#N)cc2s1
inactive: dose: 12.5 mg/kg/injection, schedule: Q01DX009 (ip), vehicle: Klucel (hydroxypropylcellulose) (HPC) 104 % of control | dose: 25.0 mg/kg/injection, schedule: Q01DX009 (ip), vehicle: Klucel (hydroxypropylcellulose) (HPC) 107 % of control | [4] 107 % of control and 90 % of control
